7 compounds from ChEMBL document CHEMBL1141539, “Neutral 5-substituted 4-indazolylaminoquinazolines as potent, orally active inhibitors of erbB2 receptor tyrosine kinase” (Bioorg Med Chem Lett, 2008) can be followed below.

Series [1] is described as follows: Volume of distribution at steady state in dog at 1 mg/kg, iv and 2 mg/kg, po. In kind it is ADME, organism-based, Canis lupus familiaris. Particulars: in vivo, read-out: Vdss; call rule not given here.
A short description of series [2]: Solubility in aqueous phosphate buffer at pH 7.4 after 24 hrs. In kind it is physicochemical.
The nature of series [3]: Distribution coefficient, log D at pH 7.4. In kind it is physicochemical. Particulars: octanol/water.
Series [4] in a line: Volume of distribution at steady state in rat at 1 mg/kg, iv and 2 mg/kg, po. In kind it is ADME, organism-based. Particulars: in vivo, read-out: Vdss.
Series [5] has as its system Phospholipidosis. Nature of the series: In vivo phospholipidosis in rat. In kind it is ADME, organism-based.
Series [6] is described as follows: Oral bioavailability in rat at 2 mg/kg. The settings on record: in vivo. In kind it is ADME, organism-based.
A short description of series [7]: Oral bioavailability in dog at 2 mg/kg, po. In kind it is ADME, organism-based, Canis lupus familiaris. Particulars: in vivo.
The nature of series [8]: Permeability across dog MDCK-MDR cell membrane. In kind it is ADME, cell-based, Canis lupus familiaris. The settings on record: MDCK-MDR1.

As usually defined, the solubility is the dissolved amount per volume that the medium holds. Low values mean little dissolved substance, high ones much dissolved substance. In general, logD refers to the decadic logarithm of the distribution of all forms, ionised or not, between an organic phase and buffer at a given pH. As a reminder, the bioavailability is the share of a dose that reaches the circulation, judged against a reference dose that is usually intravenous. Read a low bioavailability as little systemic uptake. Usually Papp stands for a coefficient for how fast a substance crosses the barrier. A higher Papp goes with ready permeation.

In brackets after ≈: the same amount, converted by molar mass.

In the case of `C[C@@H](Oc1cccc2ncnc(Nc3ccc4c(cnn4Cc4nccs4)c3)c12)C(=O)N1CCOCC1`, the Vd in series [1] stood at 3.1 L/kg; in series [4], 2 L/kg. The amount in solution in series [2] (solubility at 24 h) came to 101 µM (≈ 52.1 µg/mL). This compound also yielded a pH-dependent lipophilicity (logD) in series [3] of 2.6. Further, the Phospholipidosis result in series [5] is “Not Active”. Further, the bioavailability was found to be 50% in series [6] and 36% in series [7]. This compound also had a Papp in series [8] of 10 ×10⁻⁶ cm/s.
With `C[C@@H](Oc1cccc2ncnc(Nc3ccc4c(cnn4Cc4cccc(F)c4)c3)c12)C(=O)N(C)C`, in series [2], the concentration in solution (solubility at 24 h) was 3 µM (≈ 1.45 µg/mL).
The same measure, in the same setting: under `C[C@@H](Oc1cccc2ncnc(Nc3ccc4c(cnn4Cc4ccccn4)c3)c12)C(N)=O` stands 3 µM (≈ 1.32 µg/mL); under `C[C@@H](Oc1cccc2ncnc(Nc3ccc4c(cnn4Cc4nccs4)c3)c12)C(=O)N(C)C`, 29 µM (≈ 13.7 µg/mL).
The same measure, in the same setting: under `C[C@@H](Oc1cccc2ncnc(Nc3ccc4c(cnn4Cc4cscn4)c3)c12)C(=O)N(C)C` stands 44 µM (≈ 20.8 µg/mL).
With `C[C@@H](Oc1cccc2ncnc(Nc3ccc4c(cnn4Cc4ccccn4)c3)c12)C(=O)N(C)C`, the Vd in series [1] was determined as 2.3 L/kg; in series [4] it was 2.1 L/kg. Moreover, the concentration in solution in series [2] (solubility at 24 h) came to 270 µM (≈ 126 µg/mL). Further, in series [3], the logD amounted to 2.9. Further, the bioavailability in series [6] came out at 36%; in series [7], 40%.
Turning to `CNC(=O)[C@@H](C)Oc1cccc2ncnc(Nc3ccc4c(cnn4Cc4ccccn4)c3)c12`, the concentration in solution in series [2] (solubility at 24 h) was 4 µM (≈ 1.81 µg/mL).
